Values joined by “and” are separate entries in the source; they are usually repeats but may differ in a detail not shown here. Equal entries are not always repeated. “Also recorded” adds a separate entry of the source. Where two headings read alike, the source gives them in different places.
Legend:
MX-1 Breast Cancer = test: antitumor evaluation vs. MX-1 breast cancer xenograft
Beagle dogs = test: acute IV toxicity in the dog; type: in vivo; conditions: for Observations (mortality): 2 M 2 F
Procedure: This example describes the acute toxicity of DM-CHOC-PEN in dogs. An acute study was performed in adult Beagle dogs, which consisted of: DM-CHOC-PEN administered once IV. Sixteen (16) adult beagle dogs (8 male and 8 female) divided into three groups received a single intravenous injection of DM-CHOC-PEN. The DM-CHOC-PEN was administered in 0.3% Klucel+1.92% Tween® 80, The results are recorded in Table 6.

KG breast CA = test: in vitro cytotoxic activity against KG breast cancer explants; type: cell-based, human
Excerpt: (§1) In one embodiment, preferred therapeutic agents are identified herein by assessing their in vitro cytotoxic activity against cultured model cancer cell lines. […] Suitable cell lines against which the disclosed compounds may be assessed are well known to those of skill in the art and include, by way of example, KG breast CA, LM breast CA and 9L rat glioma. […] The KG breast cancer explants were obtained from surgical biopsies of chest wall metastases from breast cancer. The patient had failed on extensive standard and experimental chemo/hormone and radiation therapy protocols. Minced biopsy specimens were grown in RPMI plus 10% FBS with antibiotics at 37° C. and 5% CO2 atmosphere. DM-CHOC-PEN was tested at 0.5-5 μg/mL concentrations in medium and incubated for 24 hrs.

9L rat glioma = test: in vitro cytotoxic activity against 9L rat glioma; type: cell-based
Excerpt: as §1

mice [1] = test: acute IV toxicity in the mouse (single dose); type: in vivo; conditions: Mouse CD2F1, 12 F, 21 days
U251 GBM = type: in vivo; conditions: for ILS (percentage increased length of survival in days vs. control): U251 GBM in cerebrum, IP qd 1-5, dose not given; for LTC (long-term cure, >30-35 days): U251 GBM, cured/animals
Procedure: (§2) U251 and D54 tumors, 10^6 cultured cells in 0.03 ml volume were injected via a 25-gauge stainless steel 0.25 inch needle into the right cerebrum with angling toward the center of the brain. […] Doses varied to include an ca LD10 as described above for the MX-1 tumor. BCNU was used clinically to treated advanced gliomas and will be used as a positive control at optimal doses of 17, 10 and 6 mg/kg on a qd 1-5 schedule, since it is also the clinical standard for brain tumors and is very active against this tumor model. DM-PEN at 60, 90 and 135 mg/kg on the same schedule was included as a comparative control. Antitumor activity was assessed on the basis of survival, with the medial day of death of the controls (10 mice) typically being ca. 30-35 days. The in vivo tumor inhibition results are recorded in Table 3.

D54 Glioblastoma = test: antitumor evaluation vs. intracerebrally implanted D54 glioblastoma xenograft; type: in vivo, mice; conditions: D54 IC, 200 mg/kg IP q1d x 5d
Procedure: as §2

[2] = therapeutic studies (not specified further); type: in vivo
mice [3] = test: sub-acute oral mouse toxicity study; conditions: daily for five days, 800-2000 mg/kg
Procedure: Sub-acute oral mouse toxicity study was conducted at MPI Research, Mattawan, Mich., under GLP conditions in male/female mice.

mice [4] = test: acute IV toxicity in the mouse (single dose); type: in vivo; conditions: for Observations (mortality): 5 M 5 F
Procedure: This example describes the toxicity of DM-CHOC-PEN to mice as administered via intravenous injections and oral gavage. For the intravenous study, the dose range-finding phase consisted of five treatment groups (one male mouse/group) that received the test article as a single dose at respective dose levels of 50 (dose volume of 5 mL/kg), 100 (dose volume of 10 mL/kg), 150 (dose volume of 15 mL/kg), 250 (dose volume of 25 mL/kg), and 500 mg/kg (intended total dose volume of 50 mL/kg). The 500 mg/kg dose was intended to be a split dose that was to be administered in equal fractions (25 mL/kg/dose) approximately four hours apart (mortality precluded administration of the second portion of the dose). An additional group (one male mouse) served as the control and received the vehicle, soybean oil, at a dose volume of 25 mL/kg using the same route of administration as the treated groups. On Day 4, following the three-day observation period, all surviving dose range-finding animals were euthanized and discarded.
The main study phase consisted of five treatment groups (five mice/sex/group) that received a single dose of the test article at respective dose levels of 50, 100, 200, 400, and 600 mg/kg. An additional group (five mice/sex) served as the control and received the vehicle, 0.3% Klucel+1.92% Tween® 80, using the same dosing regimen as the treated groups. All doses were at a constant volume of 25 mL/kg.
Observations for mortality, morbidity, and the availability of food and water were conducted twice daily for all animals. Observations for clinical signs were conducted daily during the study (approximately one and four hours post-dose on Day 1 and then once daily). Body weights were measured on all animals after receipt, prior to randomization and on Day 1. In addition, body weights were measured for all surviving main study phase animals on Days 7 and 14. Macroscopic evaluations were performed on each main study phase animal at necropsy (Day 15).

LM breast CA = test: in vitro cytotoxic activity against LM breast CA; type: cell-based
Excerpt: as §1

[5] = tested on: patients with advanced solid tumors; conditions: one hour infusion for 5 consecutive days; dysmetria, ataxia, vertigo; cited from earlier work

## 4-Demethyl cholesteryloxycarbonylpenclomedine [DM-CHOC-PEN]
MX-1 Breast Cancer; MX-1 IC, 25 mg/kg IP q1d x 5d
  % Increase in Life Span (% ILS): +6%
MX-1 Breast Cancer; MX-1 IC, 50 mg/kg IP q1d x 5d
  % Increase in Life Span (% ILS): +20%
MX-1 Breast Cancer; MX-1 IC, printed on the 25 mg/kg line (25 and 50 mg/kg tested), IP q1d x 5d
  % Long Term Survivors (% LTS): 17% and 17 (1/6 CR) %
MX-1 Breast Cancer; MX-1 tumor mice, daily dosing for 5 days
  weight loss: no weight loss
Beagle dogs; Dog
  Acute IV (LD10): >30 mg/kg
Beagle dogs; Dog, Beagle, IV single dose, 10 days
  LD50: >30 mg/kg
Beagle dogs; IV once 10 mg/kg
  Observations (mortality): No deaths
Beagle dogs; IV once 20 mg/kg
  Observations (mortality): No deaths
Beagle dogs; IV once 30 mg/kg
  Observations (mortality): No deaths
Beagle dogs; estimated from dog LD10
  Comparable Human IV Dosage: >600 mg/m^2
Beagle dogs; single IV injection 10, 20 and 30 mg/kg
  effects directly related to the test article: no effects that were directly related to the test article
KG breast CA; KG breast CA
  in vitro IC50: 0.7±0.4 micrograms/mL
KG breast CA; KG breast cancer explants, 0.5-5 μg/mL in medium, incubated 24 hrs
  IC50: 1.1 ± 0.5 µg/mL
9L rat glioma
  in vitro IC50: 1.1±0.4 micrograms/mL
Mice [1]
  LD50: 390 mg/kg
U251 GBM; DM-CHOC-PEN treatment regimen in the animal studies
  neurotoxicity: did not demonstrate neurotoxicity
U251 GBM; Table 3, U251
  long-term survivors: 20%
U251 GBM; Table 3
  ILS (percentage increased length of survival in days vs. control): 29%
  LTC (long-term cure, >30-35 days): ⅕
U251 GBM; U251, IP daily x 5 days
  increase in survival compared to DM-PEN: two-fold
  tumor burden reduction: log107
U251 GBM; U251 IC, 135 mg/kg IP q1d x 5d
  % Increase in Life Span (% ILS): +29%
U251 GBM; U251 IC, 135 mg/kg IP q1d x 5d, LTS >90 days, 135 mg/kg
  % Long Term Survivors (% LTS): 20% and 20 (1/5 CR) %
U251 GBM; U251 xenograft mice, IP daily x 5
  weight loss: no weight loss
D54 Glioblastoma
  % Increase in Life Span (% ILS): +3%
  % Long Term Survivors (% LTS): 20 (1/5 CR) %
[2]
  dosing range in which responses were seen: 150 to 225 mg/kg
Mice [3]
  mortality: Only one death occurred at 800 mg/kg
  seizures: No seizures noted
Mice [3]; similar in controls
  clinical observations: some degree of lethargy and unkept appearance
Mice [4]; Day 15
  macroscopic findings at necropsy: No macroscopic findings
Mice [4]; Mouse, IV single dose
  LD50: 390 mg/kg
Mice [4]; Mouse, IV, 14-day study
  time until the last death: 2 to 14 days
Mice [4]; estimated from mouse LD10
  Comparable Human IV Dosage: 39 mg/m^2
Mice [4]; mice surviving the 14-day observation period vs controls
  body weight effects: No definitively clear treatment-related body effects
Mice [4]; mice, combined sexes, single dose
  intravenous LD10: 136 mg/kg
Mice [4]; mice, combined sexes, 95% confidence limits 298 to 502 mg/kg
  intravenous LD50: 385 mg/kg
Mice [4]; single IV dose 50 mg/kg, 50 mg/kg
  Observations (mortality): 1 of 10 and 0 M and 1 F died
Mice [4]; single IV dose 100 mg/kg, 100 mg/kg
  Observations (mortality): No animals died; also recorded: No deaths
Mice [4]; single IV dose 200 mg/kg, 200 mg/kg
  Observations (mortality): 1 of 10 and 0 M and 1 F died
Mice [4]; single IV dose 400 mg/kg, 400 mg/kg
  Observations (mortality): 7 of 10 and 4 M and 3 F died
Mice [4]; single IV dose 600 mg/kg, 600 mg/kg
  Observations (mortality): 8 of 10 and 5 M and 3 F died
Mice [4]; single IV dose 50-600 mg/kg, both sexes, generally dose-dependent
  clinical signs: decreased activity, rapid/difficult/slow/shallow breathing, limbs splayed, tremors and skin cold to touch
Mice [4]; single IV dose in soybean oil, at 0, 100, 250 and 500 mg/kg, one male mouse/group
  deaths in dose range-finding phase: immediate deaths
LM breast CA
  in vitro IC50: 1.0±0.5 micrograms/mL

## O=NN(CCCl)C(=O)NCCCl [BCNU, reference compound]
U251 GBM; U251, BCNU positive control
  % ILS: +92%

## COc1[nH]c(C(Cl)(Cl)Cl)c(Cl)c(=O)c1Cl [DM-PEN, 4-demethylpenclomedine, reference compound]
MX-1 Breast Cancer; MX-1 IC, 60 mg/kg IP q1d x 5d
  % ILS: 12%
  % LTS (given as survivors/animals): 0/5
KG breast CA; requires prior activation per the liver
  activity in vitro: not active in vitro
U251 GBM; Table 3
  ILS (percentage increased length of survival in days vs. control): 13%
  LTC (long-term cure, >30-35 days): 0
U251 GBM; Table 4 tumors, daily dosing for 5 days
  complete responders: did not produce any complete responders
U251 GBM; U251 IC, 90 mg/kg IP q1d x 5d
  % ILS: 17%
  % LTS (given as survivors/animals): 0/5

## COc1nc(C(Cl)(Cl)Cl)c(Cl)c(OC)c1Cl [PEN, 3,5-dichloro-4,6-dimethoxy-2-(trichloromethyl)-pyridine]
[5]
  neurotoxicity in clinical trials: dose-limiting neurotoxicity was observed

Source: patent US9422241B2, “Demethylpenclomedine analogs and their use as anti-cancer agents” (priority 2005, dated 2016)
